Drawing on patent US10953012B2, “Heterocyclic compounds for the inhibition of pask” (BioEnergenix LLC, priority 2011, dated 2021), this text covers IC50 for 27 molecules.

A value given as a limit tells only on which side of the number the result lay.

PASK, sequence (Q96RG2 999-1251): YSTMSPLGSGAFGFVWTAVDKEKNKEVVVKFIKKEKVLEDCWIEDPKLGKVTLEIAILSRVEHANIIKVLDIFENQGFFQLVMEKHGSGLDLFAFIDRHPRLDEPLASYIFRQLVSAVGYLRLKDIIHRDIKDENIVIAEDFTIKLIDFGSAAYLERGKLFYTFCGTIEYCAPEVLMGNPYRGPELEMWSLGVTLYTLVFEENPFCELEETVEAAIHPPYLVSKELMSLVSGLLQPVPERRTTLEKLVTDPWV

The experiment addresses PASK (Homo sapiens (Human), UniProt Q96RG2). As to the kind of experiment: PAS Kinase FRET Assay. It counts as biochemical. The conditions noted are these: TR-FRET assay; read-out: IC50 Kinase Domain. From the text: The aim of the FRET assay is to determine the inhibition potential of test compounds on targeted kinase. This assay platform provides a homogenous screening method for measuring kinase activity by quantitating the amount of phospho-substrate in solution following a kinase reaction.
In the presence of kinase and ATP, the Ulight-peptide is phosphorylated and captured by an anti-phospho-substrate antibody, which brings the Eu chelate donor and Ulight acceptor dyes into close proximity. Upon excitation at 340 nm, the Eu chelate transfers its energy to the Ulight dye, resulting in a fluorescent light emission at 665 nm
Titration of kinase at 1 mM ATP was achieved via the following protocol. After making serial three-fold dilutions of PASK (Invitrogen) in reaction buffer across the plate; 5 μl of kinase dilution and 5 μl substrate/ATP mix were added to the wells of the white Optiplate-384 (PerkinElmer). The contents of the plate were and incubated at RT for 1 h. The reaction was stopped by adding 5 μl of stop solution to each test well followed by mixing and incubation at RT for 10 minutes. 5 μl of detection mix (detection antibody diluted in detection buffer) was added; the contents of the plate were mixed and then incubated in the dark for 1 hour at RT. The signal was recorded at TR-FRET mode (665 nm/615 nm). The results were graphed to calculate the EC50.
Titration of ATP at the EC50 concentration of kinase to determine ATP Km, app. was performed using the following method. After making serial dilutions of ATP (Invitrogen), 5 μl of ATP dilution and 5 μl substrate/kinase mix were added to the wells of the white Optiplate-384 (PerkinElmer). The contents of the plate were and incubated at RT for 1 h. The reaction was stopped by adding 5 μl of stop solution to each test well followed by mixing and incubation at RT for 10 minutes. 5 μl of detection mix (detection antibody diluted in detection buffer) was added; the contents of the plate were mixed and then incubated in the dark for 1 hour at RT. The signal was recorded at TR-FRET mode (665 nm/615 nm). The results were graphed to calculate the EC50 as the ATP Km, app.
Compound screening was done via the following method. 10 mM stock solution of test compound in DMSO was prepared by dissolving test compound in DMSO at RT for 1 hour, and then sonicating at 100% output for 8 minutes. If compound is not soluble under this condition, it was diluted to 3 mM. Kinase reaction buffer was prepared containing 10 mM MgCl2, 50 mM HEPES, 1 mM EGTA, 0.01% TWEEN-20, 2 mM DTT. Serial dilutions of the test compounds were prepared at 4×final assay concentrations using Freedom EVO200® dispensing system as follows: 12×10^−5 M, 4×10^−5 M, 1.33×10^−5 M, 4.44×10^−6 M, 1.48×10^−6 M, 4.92×10^−7 M, 1.65×10^−7 M, […], 1.82×10^−8M, 6.09×10^−9, 2.03×10^−9 M. Test compounds (2.5 μl at 4× the final assay concentration) was added to wells using Freedom EVO200® dispensing system. As a positive control, 2.5 μl of positive compound was added to assay wells, and 2.5 μl of DMSO to assay wells as vehicle control. Kinase solution was prepared in reaction buffer at 2×final assay concentration. Kinase solution (5 μl) was added to each well of the assay plate. The substrate and ATP solution was prepared in kinase reaction buffer at 4×final assay concentration. The kinase reaction was started by adding 2.5 μl of substrate+ATP mix solution to each well of the assay plate. The plate is mixed on a plate shaker; then covered and allowed to react for 2 hours in the dark at 25° C. without shaking. The reaction was stopped by adding 5 μl of stop solution to each test well followed by mixing and incubation at RT for 10 minutes in the dark. 5 μl of detection mix (detection antibody diluted in detection buffer) was added; the contents of the plate were mixed and then incubated in the dark for 1 hour at RT. The signal was recorded at TR-FRET mode (665 nm/615 nm).
(In general: TR-FRET usually uses a lanthanide donor and a delayed reading to cut background.)
Broadly, the IC50 is the midpoint of a concentration-inhibition curve. For the molecule `CCC(=O)Nc1nn2c(=O)cc(-c3ccc4nn[nH]c4c3)[nH]c2c1-c1ccccn1` [Example 203, N-(5-(1H-Benzo[d][1,2,3]triazol-6-yl)-7-oxo-3-(pyridin-2-yl)-4,7-dihydropyrazolo[1,5-a]pyrimidin-2-yl)propionamide], the IC50 is ≤ 10 µM. The figure for `CCn1ncc2cc(-c3cc(=O)n4nc(NC(C)=O)c(-c5ccccn5)c4[nH]3)ccc21` [Example 204, N-(5-(1-Ethyl-1H-indazol-5-yl)-7-oxo-3-(pyridin-2-yl)-4,7-dihydropyrazolo[1,5-a]pyrimidin-2-yl)acetamide] is ≤ 10 µM. As to `CCc1nn2c(=O)cc(-c3ccc4[nH]nnc4c3)[nH]c2c1-c1ccccc1` [Example 206, 5-(1H-Benzo[d][1,2,3]triazol-5-yl)-2-ethyl-3-phenylpyrazolo[1,5-a]pyrimidin-7(4H)-one], the IC50 is ≤ 10 µM. Turning to `O=c1cc(-c2ccc3[nH]nnc3c2)[nH]c2c(Cc3ccccc3)cnn12` [Example 207, 5-(1H-Benzo[d][1,2,3]triazol-5-yl)-3-benzylpyrazolo[1,5-a]pyrimidin-7(4H)-one], the IC50 was ≤ 10 µM. With `Nc1nn2c(=O)cc(-c3ccc4[nH]nnc4c3)[nH]c2c1Cc1ccccc1` [Example 208, 2-Amino-5-(1H-benzo[d][1,2,3]triazol-5-yl)-3-benzylpyrazolo[1,5-a]pyrimidin-7(4H)-one] the figure was ≤ 10 µM; with `O=c1cc(-c2ccc3[nH]nnc3c2)[nH]c2c(Cc3ccccc3)c(O)nn12` [Example 209, 5-(1H-Benzo[d][1,2,3]triazol-5-yl)-3-benzyl-2-hydroxypyrazolo[1,5-a]pyrimidin-7(4H)-one], ≤ 10 µM; with `O=c1cc(-c2ccc3c(c2)OCO3)[nH]c2c(Cc3ccccn3)cnn12` [Example 211, 5-(Benzo[d][1,3]dioxol-5-yl)-3-(pyridin-2-ylmethyl)-pyrazolo[1,5-a]pyrimidin-7(4H)-one], ≤ 10 µM. With `Cc1nn2c(=O)cc(-c3ccc4[nH]nnc4c3)[nH]c2c1-c1ccccc1` [Example 212, 5-(1H-Benzo[d][1,2,3]triazol-5-yl)-2-methyl-3-phenylpyrazolo[1,5-a]pyrimidin-7(4H)-one] the figure was ≤ 10 µM. The figure for `O=c1cc(-c2ccc3[nH]nnc3c2)[nH]c2c(-c3ccccc3)c(O)nn12` [Example 215, 5-(1H-Benzo[d][1,2,3]triazol-5-yl)-2-hydroxy-3-phenylpyrazolo[1,5-a]pyrimidin-7(4H)-one] is ≤ 10 µM; for `Cc1nn2c(=O)cc(-c3ccc4[nH]nnc4c3)[nH]c2c1-c1ccc(Cl)cc1` [Example 216, 5-(1H-Benzo[d][1,2,3]triazol-5-yl)-3-(4-chlorophenyl)-2-methylpyrazolo[1,5-a]pyrimidin-7(4H)-one] it is ≤ 10 µM. Take `Cc1nn2c(=O)cc(-c3ccc4[nH]ncc4c3)[nH]c2c1-c1ccccn1` [Example 219, 5-(1H-Indazol-5-yl)-2-methyl-3-(pyridin-2-yl)pyrazolo[1,5-a]pyrimidin-7(4H)-one]: the IC50 is ≤ 10 µM.

As to `Cc1nn2c(=O)cc(-c3ccc4[nH]ncc4c3)[nH]c2c1-c1ccc(Cl)cc1` [Example 220, 3-(4-Chlorophenyl)-5-(1H-indazol-5-yl)-2-methylpyrazolo[1,5-a]pyrimidin-7(4H)-one], the half-inhibitory concentration (IC50) is ≤ 10 µM. With `Nc1nn2c(=O)cc(-c3ccc4[nH]ncc4c3)[nH]c2c1-c1ccc(Cl)cc1` [Example 221, 2-Amino-3-(4-chlorophenyl)-5-(1H-indazol-5-yl)pyrazolo[1,5-a]pyrimidin-7(4H)-one] the figure was ≤ 10 µM; with `O=c1cc(-c2ccc3[nH]ncc3c2)[nH]c2c(-c3ccc(Cl)cc3)c(O)nn12` [Example 222, 3-(4-Chlorophenyl)-2-hydroxy-5-(1H-indazol-5-yl)pyrazolo[1,5-a]pyrimidin-7(4H)-one], ≤ 10 µM. With `CCCNC(=O)c1c(N)nn2c(=O)cc(-c3ccc4c(c3)OCCO4)[nH]c12` [Example 226, 2-Amino-5-(2,3-dihydrobenzo[b][1,4]dioxin-6-yl)-7-oxo-N-propyl-4,7-dihydropyrazolo[1,5-a]pyrimidine-3-carboxamide] the figure was ≤ 10 µM; with `CCCNC(=O)c1c(O)nn2c(=O)cc(-c3ccc4[nH]nnc4c3)[nH]c12` [Example 228, 5-(1H-Benzo[d][1,2,3]triazol-5-yl)-2-hydroxy-7-oxo-N-propyl-4,7-dihydropyrazolo[1,5-a]pyrimidine-3-carboxamide], ≤ 10 µM. The figure for `Cc1c(-c2cc(=O)n3ncc(-c4ccccn4)c3[nH]2)ccc2c1OCO2` [Example 229, 5-(4-Methylbenzo[d][1,3]dioxol-5-yl)-3-(pyridin-2-yl)pyrazolo[1,5-a]pyrimidin-7(4H)-one] is ≤ 10 µM; for `Cc1c(-c2cc(=O)n3nc(N)c(-c4ccccn4)c3[nH]2)ccc2c1OCO2` [Example 230, 2-Amino-5-(4-methylbenzo[d][1,3]dioxol-5-yl)-3-(pyridin-2-yl)pyrazolo[1,5-a]pyrimidin-7(4H)-one] it is ≤ 10 µM; for `Cc1c(-c2cc(=O)n3nc(O)c(-c4ccccn4)c3[nH]2)ccc2c1OCO2` [Example 231, 2-Hydroxy-5-(4-methylbenzo[d][1,3]dioxol-5-yl)-3-(pyridin-2-yl)pyrazolo[1,5-a]pyrimidin-7(4H)-one] it is ≤ 10 µM.

As for `Cc1nn2c(=O)cc(-c3ccc4c(c3C)OCO4)[nH]c2c1-c1ccccn1` [Example 232, 2-Methyl-5-(4-methylbenzo[d][1,3]dioxol-5-yl)-3-(pyridin-2-yl)pyrazolo[1,5-a]pyrimidin-7(4H)-one], the IC50 was ≤ 10 µM. On to `COc1c(-c2cc(=O)n3ncc(-c4ccccn4)c3[nH]2)ccc2c1OCO2` [Example 233, 5-(4-Methoxybenzo[d][1,3]dioxol-5-yl)-3-(pyridin-2-yl)pyrazolo[1,5-a]pyrimidin-7(4H)-one], for which the half-maximal inhibitory concentration (IC50) is ≤ 10 µM. The figure for `Cc1cc2[nH]nnc2cc1-c1cc(=O)n2ncc(-c3ccccn3)c2[nH]1` [Example 236, 5-(6-Methyl-1H-benzo[d][1,2,3]triazol-5-yl)-3-(pyridin-2-yl)pyrazolo[1,5-a]pyrimidin-7(4H)-one] is ≤ 10 µM; for `Cc1cc2[nH]nnc2cc1-c1cc(=O)n2nc(N)c(-c3ccccn3)c2[nH]1` [Example 238, 2-Amino-5-(6-methyl-1H-benzo[d][1,2,3]triazol-5-yl)-3-(pyridin-2-yl)pyrazolo[1,5-a]pyrimidin-7(4H)-one] it is ≤ 10 µM. With `Cc1cc2[nH]nnc2cc1-c1cc(=O)n2nc(O)c(-c3ccccn3)c2[nH]1` [Example 239, 2-Hydroxy-5-(6-methyl-1H-benzo[d][1,2,3]triazol-5-yl)-3-(pyridin-2-yl)pyrazolo[1,5-a]pyrimidin-7(4H)-one] the figure was ≤ 10 µM; with `Cc1c(-c2cc(=O)n3nc(N)c(-c4ccccn4)c3[nH]2)ccc2[nH]nnc12` [Example 240, 2-Amino-5-(4-methyl-1H-benzo[d][1,2,3]triazol-5-yl)-3-(pyridin-2-yl)pyrazolo[1,5-a]pyrimidin-7(4H)-one], ≤ 10 µM; with `Cc1c(-c2cc(=O)n3nc(O)c(-c4ccccn4)c3[nH]2)ccc2[nH]nnc12` [Example 241, 2-Hydroxy-5-(4-methyl-1H-benzo[d][1,2,3]triazol-5-yl)-3-(pyridin-2-yl)pyrazolo[1,5-a]pyrimidin-7(4H)-one], ≤ 10 µM. For the molecule `Cc1nn2c(=O)cc(-c3ccc4[nH]nnc4c3C)[nH]c2c1-c1ccccn1` [Example 242, 2-Methyl-5-(4-methyl-1H-benzo[d][1,2,3]triazol-5-yl)-3-(pyridin-2-yl)pyrazolo[1,5-a]pyrimidin-7(4H)-one], the 50% inhibitory concentration (IC50) is ≤ 10 µM.
